Source: ChEMBL document CHEMBL1201862, “PubChem BioAssay data set” (2004)
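Cells were grown in 96-well plates and exposed to each compound for 48 hours at five concentrations; endpoints were interpolated linearly between bracketing concentrations, or set to the highest concentration if not reached. Here, GI50 denotes the concentration required for 50% inhibition of growth.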 The source made the active and inactive calls. Rule as the data show it: active = GI50 up to about 1.1 µM and inactive = higher.

Key:
Assay in all cases: DTP human tumour cell line panel, 48 h
U-251 = test system: U-251
K562 = test system: K562
SN12C = test system: SN12C
NCI-H23 = test system: NCI-H23
UACC-62 = test system: UACC-62
NCI-H460 = test system: NCI-H460
SNB-19 = test system: SNB-19
OVCAR-4 = test system: OVCAR-4
SK-MEL-28 = test system: SK-MEL-28
RXF 393 = test system: RXF 393
EKVX = test system: EKVX
SK-MEL-5 = test system: SK-MEL-5
ACHN = test system: ACHN
Malme-3M = test system: Malme-3M
A498 = test system: A498
UACC-257 = test system: UACC-257
HL-60 = test system: HL-60

Measured: GI50

C=C(C)CC(C(=O)O)c1ccc(C)cc1 (stereo not drawn)
inactive: U-251 > 100 µM | K562 > 100 µM | SN12C > 100 µM | NCI-H23 > 100 µM | UACC-62 > 100 µM | NCI-H460 > 100 µM | SNB-19 > 100 µM | OVCAR-4 > 100 µM | SK-MEL-28 > 100 µM | RXF 393 > 100 µM | EKVX > 100 µM | SK-MEL-5 > 100 µM | ACHN > 100 µM | Malme-3M > 100 µM | A498 > 100 µM | UACC-257 > 100 µM

NC(=O)/N=C1\NC(Cc2ccccc2)C(=O)N1Cc1ccccc1 (stereo not drawn)
inactive: U-251 > 100 µM | K562 > 100 µM | SN12C > 100 µM | NCI-H23 > 100 µM | UACC-62 > 100 µM | NCI-H460 > 100 µM | SNB-19 > 100 µM | OVCAR-4 > 100 µM | SK-MEL-28 > 100 µM | RXF 393 > 100 µM | EKVX > 100 µM | SK-MEL-5 > 100 µM | ACHN 80.4 µM | HL-60 > 100 µM | UACC-257 > 100 µM

Cc1c2ncccc2c(C)c2c1[nH]c1ccccc12
inactive: U-251 12.2 µM | K562 14.5 µM | SN12C 11.5 µM | NCI-H23 11.1 µM | UACC-62 15.3 µM | NCI-H460 5.18 µM | SNB-19 13.8 µM | OVCAR-4 18 µM | SK-MEL-28 15.6 µM | RXF 393 13 µM | EKVX 16 µM | ACHN 12.9 µM | Malme-3M 15.1 µM | A498 12.5 µM | UACC-257 16.6 µM

S=C1OC2CCCC[C@H]2O1 (stereo partly drawn)
inactive: U-251 > 100 µM | K562 > 100 µM | SN12C > 100 µM | NCI-H23 > 100 µM | UACC-62 > 100 µM | NCI-H460 > 100 µM | SNB-19 > 100 µM | OVCAR-4 > 100 µM | SK-MEL-28 > 100 µM | RXF 393 > 100 µM | EKVX > 100 µM | SK-MEL-5 > 100 µM | ACHN > 100 µM | HL-60 > 100 µM | UACC-257 > 100 µM

Sc1nnc(-c2ccccc2)n1/N=C\c1ccc(-c2ccc(Cl)cc2)o1
inactive: U-251 > 100 µM | K562 > 100 µM | NCI-H23 > 100 µM | UACC-62 > 100 µM | NCI-H460 > 100 µM | SNB-19 > 100 µM | OVCAR-4 > 100 µM | SK-MEL-28 > 100 µM | ACHN > 100 µM | HL-60 > 100 µM | UACC-257 > 100 µM

O=C(c1ccccc1)c1nnc(C(=O)c2ccccc2)nn1
inactive: U-251 165 µM | K562 119 µM | SN12C > 344 µM | NCI-H23 308 µM | UACC-62 > 344 µM | NCI-H460 > 344 µM | SNB-19 > 344 µM | OVCAR-4 > 344 µM | SK-MEL-28 > 344 µM | RXF 393 151 µM | EKVX > 344 µM | SK-MEL-5 > 344 µM | ACHN > 344 µM | HL-60 > 344 µM | Malme-3M > 344 µM | UACC-257 > 344 µM

CCOc1cccc2cccnc12
inactive: K562 > 100 µM | SN12C > 100 µM | NCI-H23 > 100 µM | UACC-62 > 100 µM | NCI-H460 > 100 µM | SNB-19 > 100 µM | OVCAR-4 > 100 µM | SK-MEL-28 > 100 µM | RXF 393 > 100 µM | EKVX > 100 µM | SK-MEL-5 > 100 µM | ACHN > 100 µM | HL-60 > 100 µM | Malme-3M > 100 µM | UACC-257 > 100 µM

Nc1ccc2c(c1)CC1c3ccccc3C(C2)c2ccccc21
inactive: U-251 > 100 µM | K562 > 100 µM | SN12C > 100 µM | UACC-62 > 100 µM | NCI-H460 > 100 µM | SNB-19 > 100 µM | OVCAR-4 > 100 µM | RXF 393 > 100 µM | SK-MEL-5 > 100 µM | ACHN > 100 µM | HL-60 > 100 µM | Malme-3M > 100 µM | A498 > 100 µM | UACC-257 > 100 µM

O=Cc1cc2sc(C=O)cc2s1
inactive: U-251 > 100 µM | K562 > 100 µM | SN12C > 100 µM | NCI-H23 > 100 µM | UACC-62 40.6 µM | NCI-H460 > 100 µM | SNB-19 > 100 µM | OVCAR-4 > 100 µM | RXF 393 > 100 µM | EKVX > 100 µM | SK-MEL-5 > 100 µM | HL-60 > 100 µM | Malme-3M > 100 µM | A498 17.7 µM | UACC-257 > 100 µM

COc1ccc(/C(=C/n2ccnc2)C(O)c2ccc(OC)c(OC)c2)cc1OC (stereo not drawn)
inactive: U-251 > 100 µM | K562 37.2 µM | SN12C > 100 µM | NCI-H23 > 100 µM | NCI-H460 71.6 µM | SNB-19 > 100 µM | OVCAR-4 > 100 µM | SK-MEL-28 > 100 µM | RXF 393 33.3 µM | HL-60 28.8 µM | A498 68.9 µM | UACC-257 > 100 µM

CC1=NC(C(C)C)C(=O)O1 (stereo not drawn)
inactive: U-251 > 100 µM | K562 61.1 µM | SN12C > 100 µM | NCI-H23 > 100 µM | UACC-62 > 100 µM | NCI-H460 > 100 µM | SNB-19 > 100 µM | OVCAR-4 > 100 µM | SK-MEL-28 > 100 µM | EKVX > 100 µM | SK-MEL-5 > 100 µM | ACHN > 100 µM | HL-60 > 100 µM | Malme-3M > 100 µM | A498 > 100 µM | UACC-257 > 100 µM

O=C(O)C(CS)Nc1c2ccccc2[n+]([O-])c2ccccc12 (stereo not drawn)
inactive: U-251 > 100 µM | K562 78.9 µM | SN12C > 100 µM | NCI-H23 87.7 µM | UACC-62 > 100 µM | NCI-H460 > 100 µM | SNB-19 > 100 µM | OVCAR-4 > 100 µM | SK-MEL-28 > 100 µM | EKVX 80.4 µM | SK-MEL-5 76 µM | ACHN > 100 µM | HL-60 50.2 µM | Malme-3M > 100 µM | A498 > 100 µM | UACC-257 > 100 µM

Cc1ccc2ccc(-c3ccccc3)c3c2c1C(=O)c1ccccc1C3=O
inactive: U-251 > 100 µM | K562 > 100 µM | SN12C > 100 µM | NCI-H23 > 100 µM | UACC-62 92.7 µM | SNB-19 64.1 µM | SK-MEL-28 > 100 µM | RXF 393 61 µM | EKVX > 100 µM | SK-MEL-5 53.6 µM | ACHN 58.5 µM | HL-60 > 100 µM | Malme-3M > 100 µM | A498 74 µM | UACC-257 > 100 µM

CN(C)CC(=O)N1CCc2c([nH]c3ccccc23)C1c1cccnc1 (stereo not drawn)
inactive: U-251 > 100 µM | K562 > 100 µM | SN12C > 100 µM | NCI-H23 > 100 µM | UACC-62 > 100 µM | NCI-H460 > 100 µM | SNB-19 > 100 µM | OVCAR-4 > 100 µM | SK-MEL-28 > 100 µM | EKVX > 100 µM | SK-MEL-5 > 100 µM | ACHN > 100 µM | HL-60 > 100 µM | A498 > 100 µM | UACC-257 > 100 µM

COC1CCCc2c(OC(C)=O)ccc(OC(C)=O)c21 (stereo not drawn)
inactive: U-251 > 100 µM | K562 > 100 µM | SN12C > 100 µM | NCI-H23 > 100 µM | UACC-62 > 100 µM | SNB-19 > 100 µM | OVCAR-4 35 µM | SK-MEL-28 > 100 µM | RXF 393 > 100 µM | SK-MEL-5 > 100 µM | ACHN > 100 µM | HL-60 > 100 µM | Malme-3M > 100 µM

CCCCCCCC/C=C1\CCC(CN(C)C)C1=O (stereo not drawn)
inactive: U-251 2.14 µM | K562 2.51 µM | SN12C 4.02 µM | NCI-H23 10.7 µM | UACC-62 7.41 µM | NCI-H460 10.7 µM | SNB-19 16.7 µM | OVCAR-4 13.7 µM | SK-MEL-28 3.89 µM | EKVX 9.06 µM | SK-MEL-5 8.45 µM | ACHN 6.61 µM | HL-60 5.05 µM | Malme-3M 3.18 µM | A498 16.5 µM | UACC-257 5.89 µM

C=C[C@@]1(C)CCC2(O)C(CCC3C2(C)CCC[C@@]3(C)COC(=O)CC(=O)OC)C1 (stereo partly drawn)
inactive: U-251 17.9 µM | K562 22.4 µM | SN12C 19.9 µM | NCI-H23 20.6 µM | UACC-62 17.2 µM | NCI-H460 34.3 µM | SNB-19 31.6 µM | OVCAR-4 17.5 µM | SK-MEL-28 17 µM | RXF 393 23.7 µM | SK-MEL-5 18 µM | ACHN 40.1 µM | HL-60 19.2 µM | Malme-3M 17.7 µM | UACC-257 20.2 µM

O=C(O)c1ccccc1NS(=O)(=O)c1ccc(Cl)cc1
inactive: U-251 > 100 µM | K562 > 100 µM | SN12C > 100 µM | NCI-H23 > 100 µM | UACC-62 > 100 µM | NCI-H460 > 100 µM | SNB-19 > 100 µM | OVCAR-4 > 100 µM | SK-MEL-28 > 100 µM | RXF 393 > 100 µM | EKVX > 100 µM | SK-MEL-5 > 100 µM | ACHN > 100 µM | Malme-3M > 100 µM | UACC-257 > 100 µM

C=C1C(=O)O[C@H]2[C@H]1[C@H](OC(=O)/C(C)=C\C)CC(=C)[C@@H]1[C@H](O)[C@H]3O[C@@]3(C)[C@@]12O [EUPATUNDIN]
inactive: U-251 > 100 µM | K562 > 100 µM | SN12C > 100 µM | NCI-H23 > 100 µM | UACC-62 > 100 µM | NCI-H460 > 100 µM | SNB-19 > 100 µM | OVCAR-4 > 100 µM | SK-MEL-28 > 100 µM | EKVX > 100 µM | SK-MEL-5 > 100 µM | ACHN > 100 µM | Malme-3M > 100 µM
